Source: US20110039763A1, “TARGETED ANTIMICROBIAL MOIETIES” (C3 JIAN, INC., priority 2009, published 2011)
“Also recorded” adds a separate entry of the source. Ends that are not written are not given here.

Assays:
microorganisms [1] = assay: Peptide activities: targeting/binding, antimicrobial, growth or phenotype altering (Tables 7, 8); assay type: cell-based; settings: peptides having multiple activities
microorganisms [2] = assay: Targeting peptide binding to target microorganisms (Tables 3, 10, 12); settings: microorganism(s) the targeting peptide binds; binding in aqueous buffers varied with peptide solubility, preferably 1x PBS
microorganisms [3] = assay: Morphology, biofilm and growth disrupting peptides (Table 5); assay type: cell-based; design: key: A: Peptide aggregates; B: Less hyphal formation; Clumps; Diffuse clumps and small polyps; F: Diffuse growth; H: Thin; I: Growth inhibition; Microcolony formation; Rippled; Small polyps; Thick; W: Halo formation on top, microlonies on bottom
Description: In certain embodiments peptides that induce alterations in phenotype or other biological activities can also be used as antimicrobial effector moieties.

Substance	Activities (microorganisms [1])	Target(s) (microorganisms [2])	Organism, effect (microorganisms [3]; E. faecalis)	Organism, effect (microorganisms [3]; MRSA)	Organism, effect (microorganisms [3]; S. epidermidis)	Organism, effect (microorganisms [3]; S. pneumoniae)	Organism, effect (microorganisms [3]; E. coli)	Organism, effect (microorganisms [3]; C. jejuni)	Organism, effect (microorganisms [3]; C. albicans)
PF-447: peptide having multiple activities (IDKSRNKDQFSHIFGLYNICSG; Peptide with targeting and/or antimicrobial activity)	G B	S. epidermidis; also recorded: M. luteus; also recorded: E. coli; also recorded: S. pneumoniae	E. faecalis (C)	MRSA (C)	S. epidermidis (C)	S. pneumoniae (C)	–	–	–
PF-452: peptide having multiple activities (MNNWIKVAQISVTVINEVIDIMKEKQNGGK; Peptide with targeting and/or antimicrobial activity)	G B	M. luteus; also recorded: P. aeruginosa; also recorded: C. albicans; also recorded: S. pneumoniae; also recorded: E. faecalis; also recorded: C. jeikeium; also recorded: M. smegmatis	E. faecalis (C)	MRSA (C)	S. epidermidis (C)	S. pneumoniae (R)	E. coli (C)	–	–
PF-453: peptide having multiple activities (IIQDIAHAFGY; Peptide with targeting and/or antimicrobial activity)	G B	M. luteus; also recorded: E. coli; also recorded: P. aeruginosa; also recorded: S. pneumoniae; also recorded: E. faecalis; also recorded: C. jeikeium; also recorded: C. jejuni	–	MRSA (C)	S. epidermidis (C)	S. pneumoniae (C)	E. coli (C)	–	–
PF-456: peptide having multiple activities (TCVKPRTIN; Peptide with targeting and/or antimicrobial activity)	G B	C. albicans and MRSA and E. faecalis and C. jeikeium and C. jejuni	E. faecalis (A)	–	–	–	–	C. jejuni (A)	–
PF-457: peptide having multiple activities (INKYHHIA; Peptide with targeting and/or antimicrobial activity)	G B	C. albicans; also recorded: S. pneumoniae; also recorded: E. faecalis; also recorded: C. jeikeium	–	–	–	S. pneumoniae (M)	–	–	–
PF-459: peptide having multiple activities (EKRMSFNENQSHRPLL; Peptide with targeting and/or antimicrobial activity)	G B	P. aeruginosa	–	–	–	S. pneumoniae (H)	–	–	–
PF-462: peptide having multiple activities (KNKTDTL; Peptide with targeting and/or antimicrobial activity)	G B	E. faecalis; also recorded: C. jeikeium	–	–	–	S. pneumoniae (H)	–	–	–
PF-464: peptide having multiple activities (VDMVNRFLGN; Peptide with targeting and/or antimicrobial activity)	G B	S. epidermidis and C. albicans and MRSA and S. pneumoniae and E. faecalis and C. jeikeium and C. jejuni	–	–	–	S. pneumoniae (S)	–	–	–
PF-466: peptide having multiple activities (VRKSDQ; Peptide with targeting and/or antimicrobial activity)	G B	MRSA and C. jeikeium and C. jejuni	–	–	–	S. pneumoniae (H)	–	–	–
PF-467: peptide having multiple activities (YYKDYFKEI; Peptide with targeting and/or antimicrobial activity)	G B	MRSA and E. faecalis and C. jeikeium and C. jejuni	–	–	–	S. pneumoniae (H)	–	–	–
PF-470: peptide having multiple activities (PYSDSYATRPHWEQHRAR; Peptide with targeting and/or antimicrobial activity)	G B	M. luteus and E. coli and MRSA and E. faecalis and C. jeikeium and C. jejuni	E. faecalis (A)	–	–	–	–	C. jejuni (A)	–
PF-476: peptide having multiple activities (WADAQYKLCENCSE; Peptide with targeting and/or antimicrobial activity)	G B	M. luteus; also recorded: P. mirabilis; also recorded: C. albicans; also recorded: S. pneumoniae; also recorded: E. faecalis; also recorded: C. jeikeium; also recorded: C. jejuni	–	–	–	S. pneumoniae (H)	–	–	–
PF-484: peptide having multiple activities (HKKDIRKQVFKN; Peptide with targeting and/or antimicrobial activity)	G B	S. epidermidis; also recorded: M. luteus; also recorded: P. mirabilis; also recorded: E. coli; also recorded: E. faecalis; also recorded: C. jeikeium; also recorded: C. jejuni	E. faecalis (A)	–	–	–	–	–	–
PF-513: peptide having multiple activities (SNGVGLGVGIGSGIRF-NH2)	G B	C. albicans	–	–	–	S. pneumoniae (M)	–	–	–
PF-514: peptide having multiple activities (QRFYKLFYHIDLTNEQALKLFQVK; Peptide with targeting and/or antimicrobial activity)	G B	S. epidermidis and E. coli and P. aeruginosa and C. albicans and MRSA and S. pneumoniae and E. faecalis and C. jeikeium	E. faecalis (C)	–	S. epidermidis (C)	S. pneumoniae (M)	E. coli (R)	–	–
PF-515: peptide having multiple activities (DKSTQDKDIKQAKLLAQELGL-NH2)	G B	S. epidermidis; also recorded: C. albicans; also recorded: S. pneumoniae; also recorded: C. jeikeium	–	–	–	S. pneumoniae (H)	–	–	–
PF-517: peptide having multiple activities (VKPTMTASLISTVC; Peptide with targeting and/or antimicrobial activity)	G B	C. jejuni	–	–	–	S. pneumoniae (M)	–	–	–
PF-518: peptide having multiple activities (SFYSKYSRYIDNLAGAIFLFF; Peptide with targeting and/or antimicrobial activity)	G B	S. epidermidis and E. coli and P. aeruginosa and C. albicans and MRSA and S. pneumoniae and E. faecalis	E. faecalis (C)	MRSA (C)	S. epidermidis (C)	S. pneumoniae (M)	E. coli (R)	–	–
PF-519: peptide having multiple activities (YLVYSGVLATAAAF-NH2)	G B	M. luteus; also recorded: E. faecalis; also recorded: C. jeikeium	E. faecalis (C)	MRSA (C)	–	S. pneumoniae (S)	E. coli (R)	–	–
PF-528: peptide having multiple activities (LVDVVVLIRRHLPKSCS-NH2)	G B	S. epidermidis and P. aeruginosa and C. albicans and MRSA and S. pneumoniae and E. faecalis	–	MRSA (H)	S. epidermidis (H)	S. pneumoniae (R)	E. coli (H)	–	C. albicans (C)
PF-540: peptide having multiple activities (KSILILIKVIFIGQTTIIL; Peptide with targeting and/or antimicrobial activity)	G B	C. albicans	–	MRSA (H)	S. epidermidis (H)	S. pneumoniae (R)	E. coli (R)	–	–
PF-542: peptide having multiple activities (KKDNPSLNDQDKNAVLNLLALAK; Peptide with targeting and/or antimicrobial activity)	G B	C. jeikeium	–	–	–	S. pneumoniae (H)	–	–	–
